Measured values: patent US12540164B2, “Peptides for treatment and prevention of nonalcoholic fatty liver disease and fibrosis” (UNIVERSITE DE STRASBOURG, priority 2017, dated 2026)
Entries after “also recorded” stand apart in the source; their conditions may differ. Ends that are not written are not given here.

Key:
[1] = system: ALT (alanine aminotransferase); assay: Plasma ALT ELISA; assay type: in vivo, mice; conditions: 3 months after a single subcutaneous peptide injection, n=4
Method: Mice presented were euthanized and their plasma and organs were sampled for analysis. […] Cryosection of the livers were then stained with Adipored and DAPI to detect the level of lipid droplets. […] Hepatic function is assessed by two liver related strong biomarkers namely (AST (Aspartate Aminotransferase) and ALT (Alanine Aminotransferase)), whose levels increase proportionately with liver damage.
Plasma samples from the indicated mice were used to determine plasma content of either AST (aspartate aminotransferase) or […] (alanine aminotransferase) both robust indicators of liver damage were measured using commercially purchased ELISA kits. These parameters were determined according to manufacturer's procedure. • SEB214Mu (96 Tests): Enzyme-linked Immunosorbent Assay Kit For Aspartate Aminotransferase (AST), Cloud Clone Corp. • SEA207Mu (96 Tests): Enzyme-linked Immunosorbent Assay Kit For Alanine Aminotransferase (ALT), Cloud Clone Corp.

[2] = system: LOXL2; assay: LOXL2 ELISA on liver extracts; assay type: in vivo; conditions: 3 months post unique injection in subcutaneous adipose tissue, DIO male mice, n=4
Description: (§1) LOXL2 is the enzyme promoting the development of fibrotic lesions by favoring the polymerization of collagen and FABP4 is a protein involved in lipid metabolism whose level increases with increasing lipid deposition in the liver.
For LOXL2 and GLP-1 measurements, the two commercially available kits: Lysyl Oxydase Like Protein 2 (LOXL2), Enzyme-linked Immunosorbent Assay Kit, Mus musculus, SEF552Mu, Cloud Clone Corp;
(§2) For the measurements on the liver extracts, the same kit for LOXL2 was used and for FABP4, the commercial kit used was the Elisa kit for Fatty Acid Binding Protein 4, Adipocyte (FABP4), SEB693Mu, Cloud Clone Corp.

[3] = system: FABP4; assay: FABP4 ELISA on liver extracts; assay type: in vivo; conditions: 3 months after single injection, DIO male mice
Description: as §1, §2

[4] = system: ceramides; assay: Hepatic ceramides content and profile (lipidomics); assay type: in vivo, mice; conditions: 3 injections, one per week, in subcutaneous adipose tissue
Description: ADPIF adipose tissue injection has proven to be unexpectedly liver protective relative to a specific decrease in expression levels of FATP2 in the adipose tissue and an associated profile of the FATPs and FFARs in the muscles and liver. As these changes impact circulating population of the different lipids. Ceramides are a group of biological active lipids known to be involved in NAFLD. We measured and determined the effect of ADPIF injections on the ceramides profile following 3 injections of ADPIF at a frequency of one injection per week in the subcutaneous adipose tissue.
(§3) For the lipid composition in the different tissues and plasma, all samples were flashed frozen at the time of sampling, immediately after sacrifice, and were sent to the lipidomic core facility of Dijon, (Plateforme de Lipidomique-uBorgogne INSERM UMR866/Labex LipSTIC).

[5] = system: Collagen IV; assay: Immunostaining of liver cryosections for Collagen IV (DIO-NASH); assay type: in vivo; conditions: DIO-NASH mice, 3 months after injection in subcutaneous adipose tissue; vs untreated
Method: (§4) For immunofluorescence experiments, liver and kidneys freshly sampled were included in Optimal Cutting Temperature Compound™ (OCT™, Catalog #4583, Tissue-Tek® OCT™, Sakura® Finetek, Torrance, California, USA) and cryosections of 7 μm were cut with Cryostat Leica CM1950. Cryosections were washed with 1×PBS and fixated in 4% formaldehyde solution for 15 min (Catalog #: F555-4L, Sigma-Aldrich, Saint-Louis, Missouri, USA) and then permeabilized with 0.02% SDS-PBS for 30 seconds. Blocking solution was 5%-Bovine Serum Albumin (BSA) in PBS. Primary antibodies were diluted in blocking solution and incubated overnight and indicated secondary antibodies were diluted in PBS for 30 minutes. Nuclei were counterstained with Hoechst (Catalog #: D1306, Invitrogen, Carlsbad, California, USA). Slides were then mounted with Vectashield® Mounting Medium (Catalog #: H-1000, Vector Laboratories, Burlingame, California, USA). Images were acquired and analyzed with Zeiss Imager.Z2 microscope equipped with either Zeiss AxioVision or Zeiss ZEN 2012 software (Carl Zeiss Inc., Oberkochen, Germany). Anti-Collagen IV antibody, ab6586 from Abcam and LOXL2 antibody, GTX105085 from GeneTex were used.

[6] = system: LOXL2; assay: Immunostaining of liver cryosections for LOXL2 (DIO-NASH); assay type: in vivo; conditions: DIO-NASH mice, 3 months after injection in subcutaneous adipose tissue; vs untreated
Method: as §4

[7] = system: fibrotic depots in the liver; assay: Transmitted electron microscopy of liver sections for fibrotic depots; assay type: in vivo; conditions: DIO-NASH mice, 3 months after injection in subcutaneous adipose tissue
Method: For the electron microscopy imaging on the liver extracts, the samples were immersed in glutaraldehyde (2.5%) and paraformaldehyde (2.5%) in cacodylate buffer (0.1 M, pH 7.4). The samples were post-fixed in 1% osmium tetroxide, dehydrated through graded alcohol (50, 70, 90, and 100%) and propylene oxide for 30 minutes each, and embedded in Epon 812. Semithin sections were cut at 2 μm on an ultra microtome (Leica Ultracut UCT) and ultrathin sections were cut at 70 nm and contrasted with uranyl acetate and lead citrate and examined at 70 kv with a Morgagni 268D electron microscope. Images were captured digitally by Mega View III camera (Soft Imaging System).

[8] = system: lysophosphatidylcholines (LPCs); assay: Lysophosphatidylcholines (LPC) lipid content in pancreas, adipose tissue, liver and plasma; assay type: in vivo, mice; conditions: 25 μg per mouse subcutaneous
Description: as §3

[9] = system: ALT; assay: STAM model of non-alcoholic steatohepatitis: plasma biochemistry (ALT); assay type: in vivo; conditions: STAM NASH mice, 25 μg per mouse SC once weekly 4-9 wks of age, sacrifice 9 wks; n = 6
Method: NASH was induced in 12 male mice by a single subcutaneous injection of 200 μg streptozotocin (STZ, Sigma-Aldrich, USA) solution 2 days after birth and feeding with high fat diet (HFD, 57 kcal % fat, Cat #HFD32, CLEA Japan, Inc., Japan) after 4 weeks of age. The peptide was administered subcutaneously in the adipose tissue in a volume of […] per mouse. The peptide was administered at a dose of 25 microgram (μg) per mouse once weekly. For plasma biochemistry, non-fasting blood was collected in polypropylene tubes with anticoagulant (Novo-Heparin, Mochida Pharmaceutical Co. Ltd., Japan) and centrifuged at 1,000×g for 15 minutes at 4° C. The supernatant was collected and stored at −80° C. until use. Plasma ALT level was measured by FUJI DRI-CHEM 7000 (Fujifilm, Japan). Six NASH mice were subcutaneously in the adipose tissue administered vehicle supplemented with ADPIF peptide at a dose of […] per mouse once weekly from 4 to 9 weeks of age.

For “VECTTREKEVLASLDKAAFLTQLHS (not fully specified (bridges)) [ADPIF, R and S carry the stapling, preferably 2-(7-octenyl)arginine and 2-(4-pentenyl)serine]”, the “circulating levels of ALT” value [1] was “dramatic decrease; also recorded: more active in reducing circulating levels of ALT”, the “hepatic protein content of LOXL2” value [2] was “more potent than PATAD; also recorded: significant decrease” and the “hepatic protein content of FABP4” value [3] was “more potent than PATAD; also recorded: significantly reduced”. For the same sequence, the hepatic ceramides content [4] was “globally induces a decrease”, the “Collagen IV expression in liver (immunostaining)” value [5] was “effective in preventing the progression of fibrotic markers; also recorded: reduced” and the “LOXL2 expression in liver (immunostaining)” value [6] was “effective in preventing the progression of fibrotic markers; also recorded: reduced”. The “fibrotic depots / lesions in liver by transmitted electron microscopy” value [7] was “no longer detected; also recorded: No such fibrotic depots were found”, the “level of LPC 18:2” value ([8]; adipose tissue and liver) was “most prominent reduction; also recorded: mostly reduced” and the “levels of lysophosphatidylcholines (LPCs) in the tissues analyzed” value ([8]; adipose tissue, liver, plasma, euthanized 1 week after last injection) was “effective in reducing selective LPCS; also recorded: selective decrease of certain LPCs”. For the same sequence, the “Plasma ALT (mean ± SD)” value [9] was 54 ± 9 U/L.
